Experimental findings from patent EP0409382A1, “Glutamic acid derivatives” (THE WELLCOME FOUNDATION LIMITED, priority 1989, dated 1991) are described below.

In this experiment the test system is MCF-7 breast adenocarcinoma. The experiment in a line: Cell culture cytotoxicity assay (MTT dye reduction), inhibition of cell growth. Type of experiment: cell-based, Human. Particulars: for IC50: MCF7, Anti-tumour Activity Human Breast Adenocarcinoma Cells, MCF-7, 72 hours incubation, medium with 10 nM calcium leucovorin as folate source, read-out: IC₅₀; for inhibiting the growth of MCF-7 cells: 72 hours, MTT dye reduction, result in words. How it is done:
Cells and Medium: MCF-7 breast adenocarcinoma, obtained from the American Type Culture Collection (ATCC) are grown in RPMI 1640 medium supplemented with 10 nM calcium leucovorin instead of folic acid as the folate source; 10% dialyzed fetal calf serum, penicillin, streptomycin and sodium pyruvate (110 µg/ml).
Cytotoxicity Assay: Cells are seeded into 96 well plates using a Perkin Elmer Pro/pette. MCF-7 cells are seeded at 15,000 cells per well in 150 µl of medium and each concentration was assayed in triplicate. Cultures were incubated for 72 hours in a 37^o humidified incubator at5% CO₂. Inhibition of cell growth was measured using the MTT dye reduction assay.
MTT Dye Reduction Assay: Cell dilutions for a standard curve were prepared from a 72 hour log-phase culture. Serial dilutions were seeded in triplicate in 96 well plates and incubated at 37 for 1 hour. MTT (3-(4,5-dimethylthiazol-2-yl)-2,5-diphenyltetrazolium bromide) was dissolved in phosphate buffered saline at 5 mg/ml and sonicated for 30 seconds. Using the Perkin Elmer Pro/pipette, […] of medium was removed and 100 µl of MTT added to the wells of the standard curve and test plates. Suspension cultures were spun for 5 minutes at 1000 rpm before removing medium from the wells. Plates were incubated for 1 hour at 37^o on a platform shaker. Following this incubation, 100 µl of medium was removed from the wells and 100 µl of dimethylsulphoxide added to each well. The plates were sonicated for approximately 10 seconds to solubilize the precipitated formazan dye. The absorbance of each well was measured using a Titertek Multiskan MC microtiter plate reader at 570 nm with a reference wavelength of 750 nm.
On the technique in general: Tetrazolium dyes change colour on reduction, which living cells bring about.

Turning to `Nc1nc(N)c(CCCSc2ccc(C(=O)N[C@@H](CCC(=O)O)C(=O)O)cc2)c(=O)[nH]1` [Example 1F, N-[4-[[3-(2,4-Diamino-1,6-dihydro-6-oxo-5-pyrimidinyl)propyl]thio]benzoyl]-L-glutamic acid], the IC50 is 23 nM and the “inhibiting the growth of MCF-7 cells” value is reported as “active”.
`Nc1nc(N)c(CCCOc2ccc(C(=O)N[C@@H](CCC(=O)O)C(=O)O)cc2)c(=O)[nH]1` [Example 2E, N-[4-[3-(2,4-Diamino-1,6-dihydro-6-oxo-5-pyrimidinyl)propoxy]benzoyl]-L-glutamic acid]: the IC50 was determined as 85 nM and the “inhibiting the growth of MCF-7 cells” value is given as “active”.
